Results: ChEMBL document CHEMBL6120978, “Anticancer activity of salinomycin quaternary phosphonium salts” (Eur J Med Chem, 2025)
The source made the active and inactive calls. No cut-off for these calls is given here.

Assays:
[1] = Selectivity index, ratio of IC50 for cytotoxicity against chinese hamster V79 cells to IC50 for cytotoxicity against human SW620 cells; type: toxicity, cell-based; details: V79 cells versus SW620 cells, read-out: Ratio IC50
[2] = tested on: A549; test: Induction of apoptosis in human A549 cells assessed as late apoptotic cells at IC50 incubated for 72 hrs by Annexin V-FITC staining based flow cytometry analysis (reference value: 1.86 %); type: functional
[3] = tested on: Pseudomonas aeruginosa; test: Antimicrobial activity against Pseudomonas aeruginosa ATCC 15442 incubated for 18 hrs by twofold microdilution method; type: functional
[4] = Selectivity index, ratio of IC50 for cytotoxicity against human HaCaT cells to IC50 for cytotoxicity against human SW480 cells; type: toxicity, cell-based; details: HaCaT cells versus SW480 cells, read-out: Ratio IC50
[5] = tested on: A549; test: Effect on mitochondrial function in human A549 cells assessed as fold increase in mean fluorescence intensity at IC50 incubated for 48 hrs by MitoTracker Red CMXRos staining based flow cytometry analysis relative to control; type: functional
[6] = tested on: MDA-MB-231; test: Induction of cell cycle arrest in human […] cells assessed as accumulation of cells at G2 phase at IC50 incubated for 24 hrs by propidium iodide staining based flow cytometry analysis; type: functional
[7] = tested on: Lipid bilayer; test: Induction of ionic transport in azolectin bilayer membrane assessed as specific channel-like structure formation in presence of HEPES buffer by electrophysiology technique
[8] = tested on: Staphylococcus aureus; test: Antimicrobial activity against Staphylococcus aureus ATCC 6538 incubated for 18 hrs by twofold microdilution method; type: functional
[9] = tested on: Lipid bilayer; test: Induction of current generation in azolectin bilayer membrane in presence of HEPES buffer by electrophysiology technique
[10] = Selectivity index, ratio of IC50 for cytotoxicity against human HaCaT cells to IC50 for cytotoxicity against human A549 cells; type: toxicity, cell-based; details: HaCaT cells versus A549 cells, read-out: Ratio IC50
[11] = tested on: MDA-MB-231; test: Induction of ROS generation of human MDA-MB-231 cells assessed as fold increase at IC50 incubated for 6 hrs by CellROX Green staining based spectrofluorometer analysis relative to control; type: functional
[12] = tested on: Lipid bilayer; test: Induction of ionic transport in azolectin bilayer membrane assessed as irregular disturbance in membrane permeability in presence of HEPES buffer by electrophysiology technique
[13] = Selectivity index, ratio of IC50 for cytotoxicity against human HaCaT cells to IC50 for cytotoxicity against human SW620 cells; type: toxicity, cell-based; details: HaCaT cells versus SW620 cells, read-out: Ratio IC50
[14] = tested on: MDA-MB-231; test: Cytotoxicity against human MDA-MB-231 cells incubated for 72 hrs by MTT assay; type: functional, cell-based; details: MDA-MB-231, 72 h
[15] = Selectivity index, ratio of IC50 for cytotoxicity against human HaCaT cells to IC50 for cytotoxicity against human PC-3 cells; type: toxicity, cell-based; details: HaCaT cells versus PC-3 cells, read-out: Ratio IC50
[16] = tested on: A549; test: Induction of ROS generation of human A549 cells assessed as fold increase at IC50 incubated for 6 hrs by CellROX Green staining based spectrofluorometer analysis relative to control; type: functional
[17] = tested on: Mitochondrial membrane; test: Induction of mitochondrial membrane potential loss in human MDA-MB-231 cells assessed as red fluorescence at IC50 incubated for 48 hrs MitoTrackerRed CMXRos staining based flow cytometry analysis (reference value: 91.1 %); type: cell membranes
[18] = tested on: A549; test: Induction of apoptosis in human A549 cells assessed as viable cells at IC50 incubated for 72 hrs by Annexin V-FITC staining based flow cytometry analysis (reference value: 95.49 %); type: functional
[19] = tested on: A549; test: Induction of mitochondrial respiration in human A549 cells assessed as increase in oxygen consumption rate upto 10 uM by Oxygraph-2K system; type: functional, cell-based
[20] = tested on: Mitochondrial membrane; test: Induction of mitochondrial membrane potential loss in human A549 cells assessed as green fluorescence at IC50 incubated for 48 hrs MitoTracker Green FM staining based flow cytometry analysis (reference value: 8.93 %); type: cell membranes
[21] = tested on: A549; test: Induction of cell cycle arrest in human A549 cells assessed as accumulation of cells at S phase at IC50 incubated for 24 hrs by propidium iodide staining based flow cytometry analysis (reference value: 21.6 %); type: functional
[22] = tested on: Lipid bilayer; test: Induction of ionic transport in azolectin bilayer membrane assessed as membrane rupture in presence of HEPES buffer by electrophysiology technique
[23] = tested on: A549; test: Induction of mitochondrial respiration in human A549 cells assessed as increase in oxygen consumption rate by Oxygraph-2K system; type: functional, cell-based

MIC [3] [µg/mL]	MIC [8] [µg/mL]	Activity [17] [%]	Activity [20] [%]	SMILES	selectivity ratio [1]	Activity [2] [%]	selectivity ratio [4]	fold change (FC) [5]	Activity [6]	selectivity ratio [10]	fold change (FC) [11]	selectivity ratio [13]	IC50 [14] [nM]	selectivity ratio [15]	fold change (FC) [16]	Activity [18] [%]	Activity [21]	other results
256	1	39.1	41.7	CC[C@@H](C(=O)[C@@H](C)[C@@H](O)[C@H](C)[C@@H]1O[C@@H]([C@@H](CC)C(=O)OCCCC[P+](c2ccccc2)(c2ccccc2)c2ccccc2)CC[C@@H]1C)[C@H]1O[C@]2(C=C[C@@H](O)[C@]3(CC[C@@](C)([C@H]4CC[C@](O)(CC)[C@H](C)O4)O3)O2)[C@H](C)C[C@@H]1C.[Br-]	0.9	3.9	3.2	3	inactive	1.8	2	8.8	740	0.9	2	31.8	13.2%	Activity [7]: inactive; Activity [9]: Dose-dependent-effect; Activity [12]: inactive; Activity [19]: Active; Activity [22]: inactive
> 256	2	29.4	32.5	CCCC[P+](CCCC)(CCCC)CCCCOC(=O)[C@H](CC)[C@H]1CC[C@H](C)[C@H]([C@@H](C)[C@H](O)[C@H](C)C(=O)[C@H](CC)[C@H]2O[C@]3(C=C[C@@H](O)[C@]4(CC[C@@](C)([C@H]5CC[C@](O)(CC)[C@H](C)O5)O4)O3)[C@H](C)C[C@@H]2C)O1.[Br-]	1.1	14.59	1.4	3	inactive	0.8	2	1.3	900	0.5	2	19.91	Active	Activity [23]: Active; Small Increase In Oxygen Consumption Rate Was Observed
